This passage reports EC50 and Efficacy results from ChEMBL document CHEMBL5252552, “Defined concatenated α6α1β3γ2 GABAA receptor constructs reveal dual action of pyrazoloquinolinone allosteric modulators” (Bioorg Med Chem, 2019).

In test [1] the target is Gamma-aminobutyric acid receptor subunit alpha-6/beta-3/gamma-2 (Rattus norvegicus, UniProt P18508+P30191+P63079). Briefly: Positive allosteric modulation of rat recombinant GABAA alpha6beta3alpha6-gamma2beta3 receptor expressed in Xenopus laevis oocytes assessed as increase in GABA-induced current amplitude at -80 mV holding potential under less potent phase in presence of GABA EC1 to 1.5 by two-electrode voltage-clamp assay. The test is classed as cell-based, Oocyte. A general note: Two-electrode voltage clamp is typically applied to oocytes expressing channels or transporters.

Test [2] concerns the target Gamma-aminobutyric acid receptor subunit alpha-1/beta-3/gamma-2 (Rattus norvegicus) (UniProt P18508+P62813+P63079). Put plainly: Positive allosteric modulation of rat recombinant GABAA alpha1beta3alpha1-gamma2beta3 receptor expressed in Xenopus laevis oocytes assessed as maximal efficacy at -80 mV holding potential at 30 uM in presence of GABA EC1 to 1.5 by two-electrode voltage-clamp assay. It is filed as cell-based. Particulars: Oocyte, filed as positive allosteric modulator.

Test [3] deals with T1, Gamma-aminobutyric acid receptor subunit alpha-1/alpha-6/beta-3/gamma-2 (Rattus norvegicus) (UniProt P18508+P30191+P62813+P63079). Briefly: Positive allosteric modulation of rat recombinant GABAA gamma2beta3alpha1-beta3alpha6 receptor expressed in Xenopus laevis oocytes assessed as maximal efficacy at -80 mV holding potential at 30 uM in presence of GABA EC1 to 1.5 by two-electrode voltage-clamp assay. It is filed as cell-based. Particulars: Oocyte, filed as positive allosteric modulator.

Test [4] concerns the target Gamma-aminobutyric acid receptor subunit alpha-6/beta-3/gamma-2 (Rattus norvegicus) (UniProt P18508+P30191+P63079). Briefly: Positive allosteric modulation of rat recombinant GABAA alpha6beta3gamma2 receptor expressed in Xenopus laevis oocytes assessed as maximal efficacy at -80 mV holding potential at 30 uM in presence of GABA EC1 to 1.5 by two-electrode voltage-clamp assay. It is filed as cell-based. Particulars: Oocyte, filed as positive allosteric modulator.

Test [5] has as its target T1, Gamma-aminobutyric acid receptor subunit alpha-1/alpha-6/beta-3/gamma-2 (Rattus norvegicus). Briefly: Positive allosteric modulation of rat recombinant GABAA alpha6beta3alpha1-gamma2beta3 receptor expressed in Xenopus laevis oocytes assessed as maximal efficacy at -80 mV holding potential at 3 uM in presence of GABA EC1 to 1.5 by two-electrode voltage-clamp assay. It is filed as cell-based. Particulars: Oocyte, filed as positive allosteric modulator.

Gamma-aminobutyric acid receptor subunit alpha-6/beta-3/gamma-2, sequence (P18508 whole entry): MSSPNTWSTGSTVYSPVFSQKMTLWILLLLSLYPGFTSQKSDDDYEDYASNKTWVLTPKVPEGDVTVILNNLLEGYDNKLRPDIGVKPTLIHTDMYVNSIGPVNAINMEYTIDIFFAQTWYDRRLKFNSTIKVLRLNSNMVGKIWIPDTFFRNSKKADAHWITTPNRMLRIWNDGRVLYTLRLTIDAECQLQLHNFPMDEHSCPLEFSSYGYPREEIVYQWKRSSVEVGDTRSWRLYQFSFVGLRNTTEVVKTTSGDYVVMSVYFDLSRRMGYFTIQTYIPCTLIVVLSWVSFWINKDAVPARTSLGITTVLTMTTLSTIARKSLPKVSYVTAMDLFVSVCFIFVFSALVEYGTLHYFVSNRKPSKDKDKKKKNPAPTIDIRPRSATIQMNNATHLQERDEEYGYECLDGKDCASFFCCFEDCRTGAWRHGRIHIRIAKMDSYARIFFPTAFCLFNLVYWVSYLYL
Gamma-aminobutyric acid receptor subunit alpha-6/beta-3/gamma-2, sequence (P30191 whole entry): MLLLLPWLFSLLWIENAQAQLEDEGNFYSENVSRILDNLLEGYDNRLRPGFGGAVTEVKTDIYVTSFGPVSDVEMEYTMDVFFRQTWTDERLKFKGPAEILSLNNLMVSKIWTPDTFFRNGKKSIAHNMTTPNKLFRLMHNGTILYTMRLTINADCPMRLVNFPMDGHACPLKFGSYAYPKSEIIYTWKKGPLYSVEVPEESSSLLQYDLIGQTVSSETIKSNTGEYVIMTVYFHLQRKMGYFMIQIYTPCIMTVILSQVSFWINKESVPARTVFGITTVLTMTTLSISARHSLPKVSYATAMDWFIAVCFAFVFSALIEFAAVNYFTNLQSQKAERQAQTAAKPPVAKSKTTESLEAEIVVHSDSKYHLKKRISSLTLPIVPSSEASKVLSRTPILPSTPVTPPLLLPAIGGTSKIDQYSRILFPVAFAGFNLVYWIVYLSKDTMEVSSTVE
Gamma-aminobutyric acid receptor subunit alpha-6/beta-3/gamma-2, sequence (P63079 whole entry): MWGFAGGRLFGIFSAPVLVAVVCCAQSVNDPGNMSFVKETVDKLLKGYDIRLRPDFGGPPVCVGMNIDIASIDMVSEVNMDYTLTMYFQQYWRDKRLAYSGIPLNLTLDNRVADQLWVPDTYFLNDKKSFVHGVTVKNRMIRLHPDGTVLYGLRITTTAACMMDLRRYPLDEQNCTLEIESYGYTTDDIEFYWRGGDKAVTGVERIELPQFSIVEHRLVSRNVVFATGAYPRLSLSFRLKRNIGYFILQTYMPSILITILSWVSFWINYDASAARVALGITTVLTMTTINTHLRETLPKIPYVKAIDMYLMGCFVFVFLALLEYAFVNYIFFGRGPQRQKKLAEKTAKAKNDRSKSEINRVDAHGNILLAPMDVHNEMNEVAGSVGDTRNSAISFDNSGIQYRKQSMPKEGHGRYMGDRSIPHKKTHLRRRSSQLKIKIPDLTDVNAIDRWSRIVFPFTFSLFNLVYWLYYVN

For the compound `COc1ccc(-n2nc3c4ccc(Br)cc4[nH]cc-3c2=O)cc1`, the EC50 (commonly the midpoint of the concentration-response curve) in test [1] was 24 µM. In addition, the Efficacy in test [2] was determined as 242%; in test [3] it was 210%; in test [4] it was 595%; in test [5], 363%.
